Drawing on patent US8198299B2, “Cycloalkylidene and heterocycloalkylidene inhibitor compounds” (Gilead Sciences, Inc., priority 2008, dated 2012), this text covers IC50 for 29 compounds.

Sequence of HDAC 1 (Q13547 whole entry, species assumed): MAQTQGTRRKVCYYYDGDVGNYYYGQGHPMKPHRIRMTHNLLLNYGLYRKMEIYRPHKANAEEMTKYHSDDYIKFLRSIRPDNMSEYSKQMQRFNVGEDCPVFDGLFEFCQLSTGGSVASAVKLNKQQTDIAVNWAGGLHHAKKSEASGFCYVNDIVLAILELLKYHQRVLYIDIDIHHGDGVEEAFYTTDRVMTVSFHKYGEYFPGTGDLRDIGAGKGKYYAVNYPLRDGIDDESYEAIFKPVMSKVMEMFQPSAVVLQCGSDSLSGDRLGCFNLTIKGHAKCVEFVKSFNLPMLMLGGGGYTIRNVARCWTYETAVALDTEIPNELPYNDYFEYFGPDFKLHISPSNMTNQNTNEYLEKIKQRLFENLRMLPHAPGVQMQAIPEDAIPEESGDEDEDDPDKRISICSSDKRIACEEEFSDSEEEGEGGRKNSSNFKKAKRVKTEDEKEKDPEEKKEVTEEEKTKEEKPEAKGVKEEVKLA

The target of this test is HDAC 1 (Homo sapiens, UniProt Q13547). The test is described as follows: HDAC 1 inhibition assay with about 3-hour enzyme/compound preincubation (fluorophore/quencher peptide substrate). The format is biochemical. The conditions noted are these: 3-hour preincubation of enzyme and compound at room temperature; read-out: HDAC 1 inhibitory activity (IC50 [μM]) (3-hour preincubation). The procedure:
HDAC inhibitory activity of the compound of Example 1 was measured by two types of assays in which HDAC 1 and 6 were used as a target molecule. The first assay was carried out without preincubation after addition of the enzyme. The test compound was suspended in and titrated in DMSO. It was then spotted into a 384-well test plate. The enzyme, HDAC 1 or 6, was diluted in assay buffer containing 25 mM Tris-HCl (pH 8.0), 137 mM NaCl, 2.7 mM KCl, and 0.01% Tween-20 and added to the pre-spotted compound. The peptide substrate containing a fluorophore/quencher pair was diluted in the same assay buffer and added to the compound/enzyme mix initiating the reaction. The reaction incubated at room temperature for about 45 minutes. A concentrated developer solution was diluted in the assay buffer, and added to the reaction. The reaction was incubated at room temperature for about 15 minutes and relative fluorescence was read on an instrument reader.
The second assay is similar to the first assay described above, except that preincubation is carried out for about 3 hours after the enzyme is introduced. The test compound was suspended in, and titrated in DMSO. It was then spotted into a 384-well test plate. The enzyme, HDAC 1 or 6, was diluted in the same assay buffer as used in the previous assay and added to the pre-spotted compound. The enzyme/compound mix was incubated at room temperature for about 3 hours. The peptide substrate containing a fluorophore/quencher pair was diluted in the assay buffer and added to the compound/enzyme mix initiating the reaction. The reaction incubated at room temperature for 45 minutes. A concentrated developer solution was diluted in the assay buffer, and added to the reaction. The reaction was incubated at room temperature for about 15 minutes and relative fluorescence was read on an instrument reader.
A word on the IC50: it is the concentration needed to halve the response being measured. As to `Nc1ccccc1NC(=O)c1ccc(C2(c3nc(-c4ccc(N5CCNCC5)nc4)cs3)CCOCC2)cc1` [Example 35, N-(2-aminophenyl)-4-(4-(4-(6-(piperazin-1-yl)pyridin-3-yl)thiazol-2-yl)tetrahydropyran-4-yl)benzamide], the IC50 was 0.0033 µM.

Regarding `Nc1ccc(-c2ccc(F)cc2)cc1NC(=O)c1ccc(C2(c3nccs3)CCOCC2)cc1` [Example 36, N-(4-amino-4′-fluorobiphenyl-3-yl)-4-(4-(thiazol-2-yl)tetrahydropyran-4-yl)benzamide], the IC50 was found to be 0.0029 µM.

Consider `CCOc1csc(C2(c3ccc(C(=O)Nc4cc(-c5cccs5)ccc4N)cc3)CCOCC2)n1` [Example 37, N-(2-amino-5-(thiophen-2-yl)phenyl)-4-(4-(4-ethoxythiazol-2-yl)tetrahydropyran-4-yl)benzamide], for which the IC50 came out at 0.00388 µM.

Regarding `Nc1ccc(-c2cccs2)cc1NC(=O)c1ccc(C2(c3nnn[nH]3)CCOCC2)cc1` [Example 38, 4-(4-(1H-tetrazol-5-yl)tetrahydropyran-4-yl)-N-(2-amino-5-(thiophen-2-yl)phenyl)benzamide], the IC50 worked out at 0.00311 µM.

Consider `Nc1ccc(-c2ccc(F)cc2)cc1NC(=O)c1ccc(C2(c3nnn[nH]3)CCOCC2)cc1` [Example 39, 4-(4-(1H-tetrazol-5-yl)tetrahydropyran-4-yl)-N-(4-amino-4′-fluorobiphenyl-3-yl)benzamide], for which the IC50 came out at 0.00333 µM.

`CCOc1csc(C2(c3ccc(C(=O)Nc4cc(-c5ccc(F)cc5)ccc4N)cc3)CCOCC2)n1` [Example 40, N-(4-amino-4′-fluorobiphenyl-3-yl)-4-(4-(4-ethoxythiazol-2-yl)tetrahydropyran-4-yl)benzamide]: the 50% inhibitory concentration (IC50) turned out to be 0.00639 µM.

Consider `Nc1ccccc1NC(=O)c1ccc(C2(c3nc(-c4cnccn4)cs3)CCOCC2)cc1` [Example 41, N-(2-aminophenyl)-4-(4-(4-(pyrazin-2-yl)thiazol-2-yl)tetrahydropyran-4-yl)benzamide], for which the IC50 was 0.00702 µM.

On to `O=C(NO)c1ccc(C2(c3nc(-c4cccnc4)cs3)CCOCC2)cc1` [Example 42, N-hydroxy-4-(4-(4-(pyridin-3-yl)thiazol-2-yl)tetrahydropyran-4-yl)benzamide], for which the IC50 stood at 0.0351 µM.

Consider `O=C(NO)c1ccc(C2(c3nccs3)CCOCC2)cc1` [Example 43, N-hydroxy-4-(4-(thiazol-2-yl)tetrahydropyran-4-yl)benzamide], for which the IC50 was 0.363 µM.

With `CN1CCN(c2ccc(-c3csc(C4(c5ccc(C(=O)NO)cc5)CCOCC4)n3)cn2)CC1` [Example 44, N-hydroxy-4-(4-(4-(6-(4-methylpiperazin-1-yl)pyridin-3-yl)thiazol-2-yl)tetrahydropyran-4-yl)benzamide], the IC50 came to 0.0071 µM.

Take `Nc1ccc(-c2ccc(Cl)s2)cc1NC(=O)c1ccc(C2(c3nccs3)CCOCC2)cc1` [Example 45, N-(2-amino-5-(5-chlorothiophen-2-yl)phenyl)-4-(4-(thiazol-2-yl)tetrahydropyran-4-yl)benzamide]: the concentration for half-maximal inhibition (IC50) came to 0.00606 µM.

As for `Cc1ccc(-c2ccc(N)c(NC(=O)c3ccc(C4(c5nccs5)CCOCC4)cc3)c2)s1` [Example 46, N-(2-amino-5-(5-methylthiophen-2-yl)phenyl)-4-(4-(thiazol-2-yl)tetrahydropyran-4-yl)benzamide], the IC50 came out at 0.00749 µM.

With `CN1CCN(c2ccc(-c3csc(C4(c5ccc(C(=O)Nc6ccccc6N)cc5)CCOCC4)n3)cc2)CC1` [Example 47, N-(2-aminophenyl)-4-(4-(4-(4-(4-methylpiperazin-1-yl)phenyl)thiazol-2-yl)tetrahydropyran-4-yl)benzamide], the IC50 amounted to 0.00576 µM.

Regarding `Nc1ccc(-c2ccc(F)cc2)cc1NC(=O)c1ccc(C2(c3nccs3)CC2)cc1` [Example 48, N-(4-amino-4′-fluorobiphenyl-3-yl)-4-(1-(thiazol-2-yl)cyclopropyl)benzamide], the IC50 turned out to be 0.00294 µM.

Regarding `Nc1ccc(-c2cccs2)cc1NC(=O)c1ccc(C2(c3ccccn3)CCOCC2)cc1` [Example 49], the IC50 came to 0.00247 µM.

`Nc1ccc(-c2cccs2)cc1NC(=O)c1ccc(C2(c3nccs3)CC2)cc1` [Example 50, N-(2-amino-5-(thiophen-2-yl)phenyl)-4-(1-(thiazol-2-yl)cyclopropyl)benzamide]: the IC50 came to 0.00262 µM.

For `Nc1ccc(-c2cccs2)cc1NC(=O)c1ccc(C2(c3ncc(-c4cccnc4)s3)CCOCC2)cc1` [Example 51, N-(2-amino-5-(thiophen-2-yl)phenyl)-4-(4-(5-(pyridin-3-yl)thiazol-2-yl)tetrahydropyran-4-yl)benzamide], the IC50 was 0.0039 µM.

In the case of `Cc1ccc(-c2ccc(N)c(NC(=O)c3ccc(C4(c5nccs5)CC4)cc3)c2)s1` [Example 52, N-(2-amino-5-(5-methylthiophen-2-yl)phenyl)-4-(1-(thiazol-2-yl)cyclopropyl)benzamide], the IC50 was 0.00792 µM.

For the compound `O=C(NO)c1ccc(C2(c3nc(-c4cnccn4)cs3)CCOCC2)cc1` [Example 53, N-hydroxy-4-(4-(4-(pyrazin-2-yl)thiazol-2-yl)tetrahydropyran-4-yl)benzamide], the IC50 turned out to be 0.0979 µM.

Consider `Nc1ccc(-c2ccc(F)cc2)cc1NC(=O)c1ccc(C2(c3nc(-c4cnccn4)cs3)CCOCC2)cc1` [Example 54, N-(4-amino-4′-fluorobiphenyl-3-yl)-4-(4-(4-(pyrazin-2-yl)thiazol-2-yl)tetrahydropyran-4-yl)benzamide], for which the IC50 stood at 0.00625 µM.

For `Nc1ccccc1NC(=O)c1ccc(C2(c3nc(-c4cnccn4)cs3)CC2)cc1` [Example 55, N-(2-aminophenyl)-4-(1-(4-(pyrazin-2-yl)thiazol-2-yl)cyclopropyl)benzamide], the IC50 was found to be 0.0444 µM.

In the case of `CN1CCc2nc(C3(c4ccc(C(=O)Nc5cc(-c6ccc(F)cc6)ccc5N)cc4)CC3)sc2C1` [Example 56, N-(4-amino-4′-fluorobiphenyl-3-yl)-4-(1-(5-methyl-4,5,6,7-tetrahydrothiazolo[5,4-c]pyridine-2-yl)cyclopropyl)benzamide], the IC50 came out at 0.00325 µM.

As to `Nc1ccc(F)cc1NC(=O)c1ccc(C2(c3nc(-c4cnccn4)cs3)CCOCC2)cc1` [Example 57, N-(2-amino-5-fluorophenyl)-4-(4-(4-(pyrazin-2-yl)thiazol-2-yl)tetrahydropyran-4-yl)benzamide], the IC50 was 0.00774 µM.

As to `Nc1ccc(-c2ccc(F)cc2)cc1NC(=O)c1ccc(C2(c3nc4c(s3)COCC4)CC2)cc1` [Example 58, N-(4-amino-4′-fluorobiphenyl-3-yl)-4-(1-(6,7-dihydropyrano[4,3-d]thiazol-2-yl)cyclopropyl)benzamide], the IC50 worked out at 0.0208 µM.

With `Nc1ccc(-c2ccc(F)cc2)cc1NC(=O)c1ccc(C2(c3ccccn3)CCOCC2)cc1` [Example 59, N-(4-amino-4′-fluorobiphenyl-3-yl)-4-(4-(pyridin-2-yl)tetrahydropyran-4-yl)benzamide], the IC50 was 0.00231 µM.

For the compound `Nc1ccc(-c2ccc(Cl)s2)cc1NC(=O)c1ccc(C2(c3ccccn3)CCOCC2)cc1` [Example 60, N-(2-amino-5-(5-chlorothiophen-2-yl)phenyl)-4-(4-(pyridin-2-yl)tetrahydropyran-4-yl)benzamide], the IC50 was 0.00616 µM.

For the compound `Cc1nc(C2(c3ccc(C(=O)Nc4cc(-c5ccc(F)cc5)ccc4N)cc3)CCOCC2)sc1C(C)O` (centres unmarked) [Example 61, N-(4-amino-4′-fluorobiphenyl-3-yl)-4-(4-(5-(1-hydroxyethyl)-4-methylthiazol-2-yl)tetrahydropyran-4-yl)benzamide], the concentration for half-maximal inhibition (IC50) worked out at 0.00209 µM.

On to `Cc1nc(C2(c3ccc(C(=O)Nc4cc(-c5ccc(F)cc5)ccc4N)cc3)CCOCC2)sc1C` [Example 62, N-(4-amino-4′-fluorobiphenyl-3-yl)-4-(4-(4,5-dimethylthiazol-2-yl)tetrahydropyran-4-yl)benzamide], for which the IC50 came out at 0.00896 µM.

For the compound `Cc1cnc(C2(c3ccc(C(=O)Nc4cc(-c5ccc(F)cc5)ccc4N)cc3)CCOCC2)s1` [Example 63, N-(4-amino-4′-fluorobiphenyl-3-yl)-4-(4-(5-methylthiazol-2-yl)tetrahydropyran-4-yl)benzamide], the IC50 came out at 0.00428 µM.
